{
  "source": "patent US20250295648A1",
  "about": "(priority 2024, published 2025)",
  "key": {"PD patients with LID [1]": {"system": "PD patients with LID", "test": "Hospital Anxiety Depression Scale (HADS)", "assay_type": "in vivo, human", "excerpt": "The HADS is used to determine the levels of anxiety and depression that a person is experiencing. The questionnaire consists of 7 items related to anxiety and 7 related to depression. Each item on the questionnaires is scored from 0-3, which means that a person can score between 0 and 21 for either anxiety or depression."}, "5-HT1A receptors": {"target": "T1, 5-HT1A receptors (Homo sapiens, UniProt P08908)", "T1 sequence (P08908 1-422)": "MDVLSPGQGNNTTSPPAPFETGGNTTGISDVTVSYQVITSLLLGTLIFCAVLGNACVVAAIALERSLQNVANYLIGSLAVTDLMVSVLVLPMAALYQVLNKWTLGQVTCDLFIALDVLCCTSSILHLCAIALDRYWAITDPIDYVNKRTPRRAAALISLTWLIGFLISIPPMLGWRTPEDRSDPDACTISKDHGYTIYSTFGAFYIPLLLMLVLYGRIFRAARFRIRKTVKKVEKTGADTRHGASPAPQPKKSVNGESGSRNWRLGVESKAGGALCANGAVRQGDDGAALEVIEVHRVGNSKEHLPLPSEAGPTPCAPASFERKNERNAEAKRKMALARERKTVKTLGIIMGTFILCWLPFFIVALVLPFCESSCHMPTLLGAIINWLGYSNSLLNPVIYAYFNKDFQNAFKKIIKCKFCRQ", "details": "cited from earlier work"}, "PD patients with LID [2]": {"system": "PD patients with LID", "test": "King's Parkinson's Disease Pain Scale (KPPS)", "assay_type": "in vivo, human", "details": "for KPPS, mean change from baseline: per-protocol set, p < 0.01 vs baseline", "excerpt": "The KPPS is a rater-interview-based scale conducted with the patient and caregiver (if available). It is a 14-item scale covering 7 domains of pain: • z. Musculoskeletal pain • aa. Chronic pain • bb. Fluctuation-related pain • cc. Nocturnal pain • dd. Orofacial pain • ee. Edema/swelling; discoloration • ff. Radicular pain Each item is scored by severity (0-3; none to very severe) multiplied by frequency (0-4; never to all the time), for an item sub score of 0-12, resulting in a total score from 0 to 168. Ratings are based on the previous month, or in the case of this study, the intervening period since the previous clinic visit (about 3 weeks). Treatment effects would be analyzed as change from baseline for total score and for individual pain domains."}, "PD patients with LID [3]": {"system": "PD patients with LID", "test": "Epworth Sleepiness Scale (ESS)", "assay_type": "in vivo, human", "details": "for ESS, mean change from baseline: per-protocol set", "excerpt": "The ESS is a self-administered questionnaire with 8 questions. Respondents are asked to rate, on a 4-point scale (0-3), their usual chances of dozing off or falling asleep while engaged in 8 different activities. The ESS score (the sum of 8 item scores, 0-3) can range from 0 to 24. Ratings are based on the previous month, or in the case of this study, the intervening period since the previous clinic visit (about 3 weeks)."}, "[4]": {"system": "overall PD symptoms in PD patients with LID", "test": "Clinical Global Impression of Change (CGI-C)", "assay_type": "in vivo, human", "excerpt": "The CGI-C is a clinician-oriented scale that assesses the total improvement in the patient's condition relative to the clinical global impression of severity (CGI-S) scale conducted at baseline. The CGI-C rates the patient's condition from 0 to 7, with a rating of 0 indicating “no assessment”, a rating of 1 indicating “very much better”, and a rating of 7 indicating “very much worse”."}, "PD patients with LID [5]": {"system": "PD patients with LID", "test": "PD Home Dyskinesia eDiary (good ON time)", "assay_type": "in vivo, human", "excerpt": "A PD Home Dyskinesia Diary (electronic) would be completed by the patients and/or caregiver with concordance in ON time with dyskinesia between study staff and patient. The diary is integrated in the Kinesia 360 wearable dyskinesia assessment system and is based on the PD Home Diary developed by Hauser (Hauser […]. Parkinson's Disease Home Diary: Further Validation and Implications for Clinical Trials. Mov. Discord. 19 (12), 2004). The diary would be used to score 5 different conditions in 30-minute time intervals during 2×24 hours prior to Visit 2, Visit 6 and Visit 7: • ASLEEP; • OFF; • ON (i.e., adequate control of PD symptoms) without dyskinesia; • ON with non-troublesome dyskinesia; • ON with troublesome dyskinesia."}, "[6]": {"details": "per-protocol set (n = 15), Baseline"}, "[7]": {"details": "per-protocol set, Δ D 28 (end of up-titration)"}},
  "data": [
    {"smiles": "Cc1ccc(CNCC2(F)CCN(C(=O)c3ccc(F)c(Cl)c3)CC2)nc1", "note": "[NLX-112, (3-chloro-4-fluoro-phenyl)-[4-fluoro-4-{[(5-methyl-pyridin-2-ylmethyl)-amino]-methyl}piperidin-1-yl]methanone]", "values": [
      {"measurement": "anxiety and depression (HADS)", "setting": "PD patients with LID [1]; Days 28 or 42", "result": "no consistent statistically significant effect"},
      {"measurement": "HADS (Anxiety), mean", "setting": "PD patients with LID [1]; [6]", "result": 4.5},
      {"measurement": "HADS (Depression), mean", "setting": "PD patients with LID [1]; [6]", "result": 3.7},
      {"measurement": "HADS (Anxiety), mean change from baseline", "setting": "PD patients with LID [1]; [7]", "result": "−0.5"},
      {"measurement": "HADS (Depression), mean change from baseline", "setting": "PD patients with LID [1]; [7]", "result": "−0.4"},
      {"measurement": "HADS (Depression), mean change from baseline", "setting": "PD patients with LID [1]; per-protocol set, Δ D 42 (end of stable dosing)", "result": "−0.6"},
      {"measurement": "agonist efficacy at 5-HT1A receptors", "setting": "5-HT1A receptors", "result": "full agonist properties"},
      {"measurement": "selectivity for 5-HT1A receptors", "setting": "5-HT1A receptors", "result": "exceptional selectivity"},
      {"measurement": "KPPS total score (reported pain), change from baseline", "setting": "PD patients with LID [2]; Day 42, also seen with placebo", "result": "statistically significant improvement"},
      {"measurement": "KPPS, mean", "setting": "PD patients with LID [2]; [6]", "result": 16.0},
      {"measurement": "KPPS, mean change from baseline", "setting": "PD patients with LID [2]; Δ D 28 (end of up-titration)", "result": "−4.6"},
      {"measurement": "KPPS, mean change from baseline", "setting": "PD patients with LID [2]; Δ D 42 (end of stable dosing)", "result": "−4.8"},
      {"measurement": "sleepiness (ESS)", "setting": "PD patients with LID [3]; Days 28 or 42", "result": "no consistent statistically significant effect"},
      {"measurement": "ESS, mean", "setting": "PD patients with LID [3]; [6]", "result": 8.3},
      {"measurement": "ESS, mean change from baseline", "setting": "PD patients with LID [3]; Δ D 28 (end of up-titration)", "result": "−1.1"},
      {"measurement": "ESS, mean change from baseline", "setting": "PD patients with LID [3]; Δ D 42 (end of stable dosing)", "result": "−0.9"},
      {"measurement": "CGI-C: proportion of patients minimally, much or very much improved", "setting": "[4]; Day 28", "result": 33, "unit": "%"},
      {"measurement": "CGI-C: proportion of patients minimally, much or very much improved", "setting": "[4]; Day 42", "result": 53, "unit": "%"},
      {"measurement": "CGI-C Minimally improved, number of patients", "setting": "[4]; Stable Dosing (d 42), n = 15", "result": 3},
      {"measurement": "CGI-C Minimally improved, proportion of patients", "setting": "[4]; Stable Dosing (d 42), n = 15", "result": "(20%)"},
      {"measurement": "CGI-C Minimally worse, number of patients", "setting": "[4]; Stable Dosing (d 42), n = 15", "result": 1},
      {"measurement": "CGI-C Minimally worse, proportion of patients", "setting": "[4]; Stable Dosing (d 42), n = 15", "result": "(6.7%)"},
      {"measurement": "CGI-C Much improved, number of patients", "setting": "[4]; Stable Dosing (d 42), n = 15", "result": 4},
      {"measurement": "CGI-C Much improved, proportion of patients", "setting": "[4]; Stable Dosing (d 42), n = 15", "result": "(27%)"},
      {"measurement": "CGI-C No change, number of patients", "setting": "[4]; Stable Dosing (d 42), n = 15", "result": 6},
      {"measurement": "CGI-C No change, proportion of patients", "setting": "[4]; Stable Dosing (d 42), n = 15", "result": "(40%)"},
      {"measurement": "CGI-C Total Improved, number of patients", "setting": "[4]; Stable Dosing (d 42), n = 15", "result": 8},
      {"measurement": "CGI-C Total Improved, proportion of patients", "setting": "[4]; Stable Dosing (d 42), n = 15", "result": "(53%)"},
      {"measurement": "CGI-C Very much improved, number of patients", "setting": "[4]; Stable Dosing (d 42), n = 15", "result": 1},
      {"measurement": "CGI-C Very much improved, proportion of patients", "setting": "[4]; Stable Dosing (d 42), n = 15", "result": "(6.7%)"},
      {"measurement": "CGI-C Minimally improved, number of patients", "setting": "[4]; Up-Titration (d 28), n = 15", "result": 3},
      {"measurement": "CGI-C Minimally improved, proportion of patients", "setting": "[4]; Up-Titration (d 28), n = 15", "result": 20, "unit": "%"},
      {"measurement": "CGI-C Minimally worse, number of patients", "setting": "[4]; Up-Titration (d 28), n = 15", "result": 1},
      {"measurement": "CGI-C Minimally worse, proportion of patients", "setting": "[4]; Up-Titration (d 28), n = 15", "result": 6.7, "unit": "%"},
      {"measurement": "CGI-C Much improved, number of patients", "setting": "[4]; Up-Titration (d 28), n = 15", "result": 2},
      {"measurement": "CGI-C Much improved, proportion of patients", "setting": "[4]; Up-Titration (d 28), n = 15", "result": 13, "unit": "%"},
      {"measurement": "CGI-C No change, number of patients", "setting": "[4]; Up-Titration (d 28), n = 15", "result": 9},
      {"measurement": "CGI-C No change, proportion of patients", "setting": "[4]; Up-Titration (d 28), n = 15", "result": 60, "unit": "%"},
      {"measurement": "CGI-C Total Improved, number of patients", "setting": "[4]; Up-Titration (d 28), n = 15", "result": 5},
      {"measurement": "CGI-C Total Improved, proportion of patients", "setting": "[4]; Up-Titration (d 28), n = 15", "result": 33, "unit": "%"},
      {"measurement": "CGI-C Very much improved, number of patients", "setting": "[4]; Up-Titration (d 28), n = 15", "result": 0},
      {"measurement": "CGI-C overall PD symptoms, NLX-112 vs placebo", "setting": "[4]; days 28 and 42", "result": "no statistically significant differences"},
      {"measurement": "good ON time, mean absolute change from baseline", "setting": "PD patients with LID [5]; Day 28, n=13, eDiary", "result": "+5.7%"},
      {"measurement": "good ON time, significance of change from baseline within or between groups", "setting": "PD patients with LID [5]; Day 28 or Day 42", "result": "no statistically significant changes"},
      {"measurement": "good ON time, mean absolute change from baseline", "setting": "PD patients with LID [5]; Day 42, n=12, eDiary", "result": "+5.2%"}
    ]}
  ]
}
